For one assay, the target named is rat TAAR1 (Rattus norvegicus (Rat), UniProt Q923Y9). Kind of assay: Radioligand binding assay on rat TAAR1. The settings on record: rat TAAR1, membranes of HEK-293 cells, second value of the cell pair mouse/rat. How it is done:
(§1) For the construction of expression plasmids the coding sequences of human, rat and mouse TAAR 1 were amplified from genomic DNA essentially as described by Lindemann et al.. The Expand High Fidelity PCR System (Roche Diagnostics) was used with 1.5 mM Mg^2+ and purified PCR products were cloned into pCR2.1-TOPO cloning vector (Invitrogen) following the instructions of the manufacturer. PCR products were subcloned into the pIRESneo2 vector (BD Clontech, Palo Alto, Calif.), and expression vectors were sequence verified before introduction in cell lines.
(§2) HEK293 cells (ATCC # CRL-1573) were cultured essentially as described by Lindemann et al. (2005). For the generation of stably transfected cell lines HEK293 cells were transfected with the pIRESneo2 expression plasmids containing the TAAR coding sequences (described above) with Lipofectamine 2000 (Invitrogen) according to the instructions of the manufacturer, and 24 hrs post transfection the culture medium was supplemented with 1 mg/ml G418 (Sigma, Buchs, Switzerland). After a culture period of about 10 d clones were isolated, expanded and tested for responsiveness to trace amines (all compounds purchased from Sigma) with the cAMP Biotrak Enzyme immunoassay (EIA) System (Amersham) following the non-acetylation EIA procedure provided by the manufacturer.
(B) Radioligand Binding Assay on Rat TAAR1
(§3) Membrane Preparation and Radioligand Binding.
(§4) HEK-293 cells stably expressing rat TAAR1 were maintained at 37° C. and 5% CO2 in DMEM high glucose medium, containing fetal calf serum (10%, heat inactivated for 30 min at 56° C.), penicillin/streptomycin (1%), and 375 μg/ml geneticin (Gibco). Cells were released from culture flasks using trypsin/EDTA, harvested, washed twice with ice-cold PBS (without Ca^2+ and Mg^2+), pelleted at 1,000 rpm for 5 min at 4° C., frozen and stored at −80° C. Frozen pellets were suspended in 20 ml HEPES-NaOH (20 mM, pH 7.4) containing 10 mM EDTA and homogenized with a Polytron (PT 6000, Kinematica) at 14,000 rpm for 20 s. The homogenate was centrifuged at 48,000×g for 30 min at 4° C. Subsequently, the supernatant was removed and discarded, and the pellet resuspended in 20 ml HEPES-NaOH (20 mM, pH 7.4) containing 0.1 mM EDTA using the Polytron (20 s at 14,000 rpm). This procedure was repeated and the final pellet resuspended in HEPES-NaOH containing 0.1 mM EDTA and homogenized using the Polytron. Typically, aliquots of 2 ml membrane portions were stored at −80° C. With each new membrane batch the dissociation constant (Kd) was determined via a saturation curve. […] Nonspecific binding was defined as the amount of ^3[H]-(S)-4-[(ethyl-phenyl-amino)-methyl]-4,5-dihydro-oxazol-2-ylamine bound in the presence of 10 μM unlabeled ligand. All compounds were tested at a broad range of concentrations (10 pM to 10 μM) in duplicates. […] The 96 deep well plates were incubated for 1 hr at 4° C. Incubations were terminated by rapid filtration through Unifilter-96 plates (Packard Instrument Company) and glass filters GF/C (Perkin Elmer) presoaked for 1 hr in polyethylenimine (0.3%) and washed 3 times with 1 ml of cold binding buffer. After addition of 45 μl of Microscint 40 (PerkinElmer) the Unifilter-96 plate was sealed and after 1 hr the ratioactivity counted using a TopCount Microplate Scintillation Counter (Packard Instrument Company).

A further assay has as its target mouse TAAR1 (Mus musculus (Mouse), UniProt Q923Y8). Kind of assay: Radioligand binding assay on mouse TAAR1. The settings on record: mouse TAAR1, membranes of HEK-293 cells, first value of the cell pair mouse/rat. How it is done:
as §1, §2
(A) Radioligand Binding Assay on Mouse TAAR1
as §3
as §4, with “expressing mouse” for “expressing rat”

Each structure is given as a SMILES string. Counter-ions that a name gives are not always drawn. Where only a bound is given, the exact number is not on record here.

Chain of rat TAAR1 (Q923Y9 whole entry): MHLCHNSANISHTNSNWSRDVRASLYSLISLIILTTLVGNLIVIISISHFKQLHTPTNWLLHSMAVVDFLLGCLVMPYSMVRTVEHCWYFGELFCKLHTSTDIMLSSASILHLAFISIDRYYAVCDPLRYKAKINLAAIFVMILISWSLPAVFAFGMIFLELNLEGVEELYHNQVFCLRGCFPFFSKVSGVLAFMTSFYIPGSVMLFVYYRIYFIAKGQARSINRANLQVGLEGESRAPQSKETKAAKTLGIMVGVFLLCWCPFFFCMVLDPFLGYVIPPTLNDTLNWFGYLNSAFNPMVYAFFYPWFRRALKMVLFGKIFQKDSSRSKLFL
Chain of mouse TAAR1 (Q923Y8 whole entry): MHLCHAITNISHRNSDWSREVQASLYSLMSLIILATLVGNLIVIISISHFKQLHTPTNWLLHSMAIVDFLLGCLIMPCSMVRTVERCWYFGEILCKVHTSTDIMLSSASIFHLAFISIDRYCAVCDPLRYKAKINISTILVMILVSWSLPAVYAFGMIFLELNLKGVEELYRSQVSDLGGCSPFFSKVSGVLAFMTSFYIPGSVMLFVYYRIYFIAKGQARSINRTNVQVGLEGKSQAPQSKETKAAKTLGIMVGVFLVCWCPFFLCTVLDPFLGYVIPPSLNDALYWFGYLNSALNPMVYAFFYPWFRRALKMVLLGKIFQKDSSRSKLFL

On to `N#Cc1cccc(-c2cc(-c3ccc(C4CNCCO4)cc3)n[nH]2)c1` (centres unmarked) [Example 12, 3-[5-(4-Morpholin-2-yl-phenyl)-2H-pyrazol-3-yl]-benzonitrile hydrochloride], for which the Ki was 0.0615 µM on rat TAAR1 and 0.0005 µM on mouse TAAR1.
Taken in the same sequence, the figures for `Clc1cccc(-c2cc(-c3ccc([C@H]4CNCCO4)cc3)n[nH]2)c1` [Example 9, (S)-2-(4-(5-(3-Chlorophenyl)-1H-pyrazol-3-yl)phenyl)morpholine hydrochloride] were 0.0021 µM and 0.0004 µM.
In the case of `N#Cc1ccc(-c2cc(-c3ccc([C@@H]4CNCCO4)cc3)n[nH]2)cc1` [Example 32, (R)-4-(3-(4-(Morpholin-2-yl)phenyl)-1H-pyrazol-5-yl)benzonitrile hydrochloride], the Ki at rat TAAR1 came out at 0.0154 µM; at mouse TAAR1, 0.0019 µM.
Taken in the same sequence, the figures for `Fc1ccc(-c2cc(-c3ccc(C4CNCCO4)cc3)n[nH]2)cc1` (centres unmarked) [Example 4, 2-(4-(5-(4-Fluorophenyl)-1H-pyrazol-3-yl)phenyl)morpholine hydrochloride] were 0.0059 µM and 0.0012 µM.
On the same counts, the results for `Fc1ccc(-c2nnc(-c3ccc([C@@H]4CNCCO4)cc3)o2)cc1` [Example 34, (R)-2-(4-(5-(4-Fluorophenyl)-1,3,4-oxadiazol-2-yl)phenyl)morpholine hydrochloride] are 0.156 µM and 0.004 µM.
`Clc1ccc(-c2cc(-c3ccc([C@@H]4CNCCO4)cc3)n[nH]2)cn1` [Example 38, (R)-2-{4-[5-(6-Chloro-pyridin-3-yl)-1H-pyrazol-3-yl]-phenyl}-morpholine hydrochloride]: the inhibition constant Ki was determined as 0.0257 µM at rat TAAR1 and 0.0027 µM on mouse TAAR1.
On the same counts, the results for `c1cc([C@H]2CNCCO2)ccc1-c1cc(C2CCOCC2)[nH]n1` [Example 24, (S)-2-(4-(5-(Tetrahydro-2H-pyran-4-yl)-1H-pyrazol-3-yl)phenyl)morpholine hydrochloride] are 0.0722 µM and above 20 µM.
Turning to `FC(F)(F)c1cnc2[nH]c3ccc([C@@H]4CNCCO4)cc3c2c1` [Example 50, (R)-2-(3-(Trifluoromethyl)-9H-pyrido[2,3-b]indol-6-yl)morpholine hydrochloride], the Ki was found to be 0.0303 µM on rat TAAR1 (hydrochloride) and 0.0082 µM on mouse TAAR1 (hydrochloride).
In the case of `Fc1ccc(-n2cc(-c3ccc([C@H]4CNCCO4)cc3)cn2)cc1` [Example 19, (S)-2-(4-(1-(4-Fluorophenyl)-1H-pyrazol-4-yl)phenyl)morpholine hydrochloride], the figures for the Ki at rat TAAR1 and at mouse TAAR1 were 0.0669 µM and 0.0015 µM, respectively.
On the same counts, the results for `Fc1ccc(-n2cc(-c3ccc([C@@H]4CNCCO4)cc3)cn2)cc1` [Example 26, (R)-2-(4-(1-(4-Fluorophenyl)-1H-pyrazol-4-yl)phenyl)morpholine hydrochloride] are 0.0122 µM and 0.0006 µM.
In the case of `N#Cc1ccc(-c2cc(-c3ccc(C4CNCCO4)cc3)n[nH]2)cc1` (centres unmarked) [Example 6, 4-(3-(4-(Morpholin-2-yl)phenyl)-1H-pyrazol-5-yl)benzonitrile hydrochloride], the Ki at rat TAAR1 was 0.0335 µM; at mouse TAAR1, 0.0019 µM.
Taken in the same sequence, the figures for `Fc1ccc(-c2nc(-c3ccc([C@@H]4CNCCO4)cc3)n[nH]2)cc1` [Example 23, (R)-2-(4-(5-(4-Fluorophenyl)-1H-1,2,4-triazol-3-yl)phenyl)morpholine hydrochloride] were 0.0196 µM and 0.0015 µM.
On the same counts, the results for `Clc1ccc(-c2cc(-c3ccc([C@H]4CNCCO4)cc3)n[nH]2)cn1` [Example 37, (S)-2-{4-[5-(6-Chloro-pyridin-3-yl)-1H-pyrazol-3-yl]-phenyl}-morpholine hydrochloride] are 0.304 µM and 0.004 µM.
On the same counts, the results for `Fc1ccc([C@@H]2COC(c3ccc([C@H]4CNCCO4)cc3)=N2)cc1` [Example 22, (S)-2-{4-[(R)-4-(4-Fluoro-phenyl)-4,5-dihydro-oxazol-2-yl]-phenyl}-morpholine] are 1.51 µM and 0.0318 µM.
In the case of `FC(F)(F)c1ccc(-c2nc3ccc([C@@H]4CNCCO4)cc3o2)cn1` [Example 53, (R)-6-(Morpholin-2-yl)-2-(6-(trifluoromethyl)pyridin-3-yl)benzo[d]oxazole hydrochloride], the Ki at rat TAAR1 worked out at 0.226 µM; at mouse TAAR1, 0.0463 µM.
Taken in the same sequence, the figures for `O=C(Nc1n[nH]c2cc(C3CNCCO3)ccc12)c1ccc(F)cc1` (centres unmarked) [Example 21, 4-Fluoro-N-(6-(morpholin-2-yl)-1H-indazol-3-yl)benzamide hydrochloride] were 0.895 µM and 0.0617 µM.
On the same counts, the results for `FC(F)(F)c1cnc2[nH]c3ccc([C@H]4CNCCO4)cc3c2c1` [Example 46, (S)-2-(3-(Trifluoromethyl)-9H-pyrido[2,3-b]indol-6-yl)morpholine hydrochloride] are 0.0698 µM and 0.0023 µM.
Taken in the same sequence, the figures for `Clc1ccc(-c2cc(-c3ccc(C4CNCCO4)cc3)n[nH]2)cc1` (centres unmarked) [Example 3, 2-(4-(5-(4-Chlorophenyl)-1H-pyrazol-3-yl)phenyl)morpholine hydrochloride] were 0.0034 µM and 0.001 µM.
Take `Clc1cnc2[nH]c3ccc([C@H]4CNCCO4)cc3c2c1` [Example 47, (S)-2-(3-Chloro-9H-pyrido[2,3-b]indol-6-yl)morpholine hydrochloride]: the Ki amounted to 0.075 µM at rat TAAR1 and 0.0032 µM at mouse TAAR1.
With `Clc1ccc(-c2cc(-c3ccc(C4CNCCO4)cc3)n[nH]2)cn1` (centres unmarked) [Example 5, 2-(4-(5-(6-Chloropyridin-3-yl)-1H-pyrazol-3-yl)phenyl)morpholine hydrochloride], the inhibitory constant (Ki) came out at 0.0631 µM at rat TAAR1 and 0.0044 µM at mouse TAAR1.
Taken in the same sequence, the figures for `Fc1ccc(-c2cc(-c3ccc([C@H]4CNCCO4)cc3)n[nH]2)cc1` [Example 29, (S)-2-(4-(5-(4-Fluorophenyl)-1H-pyrazol-3-yl)phenyl)morpholine hydrochloride] were 0.0044 µM and 0.0007 µM.
On the same counts, the results for `Fc1ccc(-c2nc(-c3ccc([C@H]4CNCCO4)cc3)n[nH]2)cc1` [Example 20, (S)-2-(4-(5-(4-Fluorophenyl)-1H-1,2,4-triazol-3-yl)phenyl)morpholine hydrochloride] are 0.0779 µM and 0.0012 µM.

By Ki is commonly meant the dissociation constant of the complex between target and ligand, obtained from inhibition or displacement. Read a high Ki as a looser hold on the target.

These data come from patent US9181230B2, “Morpholine compounds and uses thereof” (Hoffmann-La Roche Inc., priority 2013, dated 2015).
